Measurements reported in US8183388B2, “Androgen receptor modulator and uses thereof” (Eli Lilly and Company, priority 2009, dated 2012).
Read-outs that look alike come from different tables or passages of the source.

Key:
[1] = biological target: T1, human PR (progesterone receptor) (Homo sapiens, UniProt P06401); assay: Steroid hormone nuclear receptor binding assay, PR; details: HEK293 lysate overexpressing human PR, [3H]-methyltrienolone
T1 construct: expressed in transfected cells; host or cells: HEK293 (lysate, 293-PR)
T1 sequence (P06401 1-933): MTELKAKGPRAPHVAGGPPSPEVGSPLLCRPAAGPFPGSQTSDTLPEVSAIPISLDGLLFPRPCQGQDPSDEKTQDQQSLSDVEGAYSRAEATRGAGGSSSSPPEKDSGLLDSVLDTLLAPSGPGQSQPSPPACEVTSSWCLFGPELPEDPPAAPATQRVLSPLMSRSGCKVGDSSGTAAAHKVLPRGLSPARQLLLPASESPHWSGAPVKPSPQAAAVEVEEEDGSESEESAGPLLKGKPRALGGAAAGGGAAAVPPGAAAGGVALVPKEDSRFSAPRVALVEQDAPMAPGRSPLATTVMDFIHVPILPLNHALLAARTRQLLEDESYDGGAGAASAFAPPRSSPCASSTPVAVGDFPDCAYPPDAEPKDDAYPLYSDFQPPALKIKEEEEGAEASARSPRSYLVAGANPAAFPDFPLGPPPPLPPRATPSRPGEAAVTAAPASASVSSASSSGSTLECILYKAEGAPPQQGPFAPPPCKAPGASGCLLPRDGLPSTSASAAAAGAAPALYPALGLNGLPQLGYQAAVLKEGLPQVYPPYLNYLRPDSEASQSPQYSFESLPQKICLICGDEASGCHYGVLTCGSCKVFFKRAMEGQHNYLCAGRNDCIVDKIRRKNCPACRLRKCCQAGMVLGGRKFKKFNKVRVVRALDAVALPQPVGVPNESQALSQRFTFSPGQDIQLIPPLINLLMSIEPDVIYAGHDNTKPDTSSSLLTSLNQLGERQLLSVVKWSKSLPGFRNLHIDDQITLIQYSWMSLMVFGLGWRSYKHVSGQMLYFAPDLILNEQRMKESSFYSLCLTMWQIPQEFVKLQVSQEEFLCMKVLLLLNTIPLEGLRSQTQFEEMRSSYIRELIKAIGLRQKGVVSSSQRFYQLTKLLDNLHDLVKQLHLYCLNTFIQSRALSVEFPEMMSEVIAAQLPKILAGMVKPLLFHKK
Protocol: Cell lysates from human embryonic kidney HEK293 cells overexpressing human MR (mineralocorticoid receptor), GR (glucocorticoid receptor), AR (androgen receptor), or PR (progesterone receptor) are used for receptor-ligand competition binding assays to determine Ki values. Typical procedures are provided below
Briefly, steroid receptor competition binding assays are run in a buffer containing 20 mM HEPES buffer (pH=7.6), 0.2 mM EDTA, 75 mM NaCl, 1.5 mM MgCl2, 20% glycerol, 20 mM sodium molybdate, 0.2 mM DTT (dithiothreitol), 20 μg/mL aprotinin and 20 μg/mL leupeptin (assay buffer). Typically, steroid receptor binding assays include radio-labeled ligands, such as 0.25 nM [^3H]-aldosterone for MR binding, 0.3 nM [^3H]-dexamethasone for GR binding, 0.36 nM [^3H]-methyltrienolone for AR binding, and 0.29 nM [^3H]-methyltrienolone for PR binding, and either 20 μg 293-MR lysate, 20 μg 293-GR lysate, 22 μg 293-AR lysate, or 40 μg 293-PR lysate per well. Assays are typically run in 96-well format. Competing test compounds are added at various concentrations ranging from about 0.01 nM to 10 μM. Non-specific binding is determined in the presence of 500 nM aldosterone for MR binding, 500 nM dexamethasone for GR binding, or 500 nM methyltrienolone for AR and PR binding. […] After an incubation of 2 hours, plates are read in a Wallac Microbeta counter. […]

[2] = Determination of plasma exposure; format: in vivo; details: Sprague Dawley, rat, male rats, read-out: AUC (area under the plasma concentration time curve)
Protocol: Groups of male Sprague Dawley rats (6 animals/group) are dosed either orally (dosing volume of 1.25 ml/kg; vehicle of 5% DMSO/95% HEC) or subcutaneously (dosing volume of 2.5 ml/kg; vehicle of 5% DMSO/95% soybean oil) with 10 mg/kg p.o, 1 mg/kg s.c., 3 mg/kg s.c., or 10 mg/kg s.c. of the compound of Formula (I), once per day for two weeks. Starting on the second to last day of dosing, plasma samples are collected at 0.5, 2, 4, or 24 hours post-dosing (two animals are sampled at each time-point, with the same animals being used for the 0.5 and 24 hour time-point samples). The plasma concentration of the compound of Formula (I) is determined for each collected sample using LC/MS/MS (Sciex API-4000 LC/MS/MS system). The resulting concentrations are used to construct an area under the plasma concentration time curve (AUC) for each administered dose as an index of exposure. Following a protocol essentially as described above, the administered doses of the compound of Formula (I) produced the following AUC values: 10 mg/kg p.o: about 295,511 ng·hr./ml.; 1 mg/kg s.c.: about 38,963 ng·hr./ml.; 3 mg/kg s.c.: about 137,056 ng·hr./ml.; and 10 mg/kg s.c.: about 218,537 ng·hr./ml.

Structure (SMILES): CC(C)OC(=O)N[C@H]1Cc2c(n(C[C@H]3OCC[C@@H]3O)c3ccc(C#N)cc23)C1 [compound of Formula (I), [(S)-7-Cyano-4-((2R,3S)-3-hydroxytetrahydrofuran-2-ylmethyl)-1,2,3,4-tetrahydrocyclopenta[b]indol-2-yl]-carbamic acid isopropyl ester]
- Ki [1]: > 4 µM
- AUC ([2]; po, 10 mg/kg p.o. once per day for two weeks, 5% DMSO/95% HEC): ~296 µg·h/mL
- AUC ([2]; sc, 1 mg/kg s.c. once per day for two weeks, 5% DMSO/95% soybean oil): ~39 µg·h/mL
- AUC ([2]; sc, 3 mg/kg s.c. once per day for two weeks, 5% DMSO/95% soybean oil): ~137 µg·h/mL
- AUC ([2]; sc, 10 mg/kg s.c. once per day for two weeks, 5% DMSO/95% soybean oil): ~219 µg·h/mL
